{"source": "patent US4778511A", "about": "“Fluorine-containing N-sulphenylated indazoles for use as bactericides and fungicides” (Bayer Aktiengesellschaft, priority 1985, dated 1988)", "key": {"[1]": {"system": "Penicillium glaucum", "assay": "MIC against fungi (agar), Penicillium glaucum", "type": "cell-based", "conditions": "336 h, beer wort/peptone agar, 2 weeks at 28° C., 60 to 70% relative humidity", "experimental": "(§1) Active compounds, according to the invention, are added in concentrations of 0.1 mg/l to 5000 mg/l, to an agar prepared from beer wort and peptone. The MIC is determined after the agar has been stored for 2 weeks at 28° C. and 60 to 70% relative atmospheric humidity. MlC is the lowest concentration of active compound at which the species of microbe used undergoes no growth at all; it is shown in the table below."}, "[2]": {"system": "Aspergillus niger", "assay": "MIC against fungi (agar), Aspergillus niger", "type": "cell-based", "conditions": "336 h, beer wort/peptone agar, 2 weeks at 28° C., 60 to 70% relative humidity", "experimental": "as §1"}, "[3]": {"system": "Chaelomium globosum", "assay": "MIC against fungi (agar), Chaetomium globosum", "type": "cell-based", "conditions": "336 h, beer wort/peptone agar, 2 weeks at 28° C., 60 to 70% relative humidity", "experimental": "as §1"}, "[4]": {"system": "Allernaria tenuis", "assay": "MIC against fungi (agar), Alternaria tenuis", "type": "cell-based", "conditions": "Alternaria alternata, 336 h, beer wort/peptone agar, 2 weeks at 28° C., 60 to 70% relative humidity", "experimental": "as §1"}, "[5]": {"system": "Aureobasidium pullulans", "assay": "MIC against fungi (agar), Aureobasidium pullulans", "type": "cell-based", "conditions": "336 h, beer wort/peptone agar, 2 weeks at 28° C., 60 to 70% relative humidity", "experimental": "as §1"}, "[6]": {"system": "Cladosporium", "assay": "MIC against fungi (agar), Cladosporium", "type": "cell-based", "conditions": "336 h, beer wort/peptone agar, 2 weeks at 28° C., 60 to 70% relative humidity", "experimental": "as §1"}, "[7]": {"system": "Sclerophoma pityophila", "assay": "MIC against fungi (agar), Sclerophoma pityophila", "type": "cell-based", "conditions": "Sydowia polyspora, 336 h, beer wort/peptone agar, 2 weeks at 28° C., 60 to 70% relative humidity", "experimental": "as §1"}, "[8]": {"system": "Lentinus tigrinus", "assay": "MIC against fungi (agar), Lentinus tigrinus", "type": "cell-based", "conditions": "336 h, beer wort/peptone agar, 2 weeks at 28° C., 60 to 70% relative humidity", "experimental": "as §1"}, "[9]": {"system": "Drechslera graminea (syn. Helminthosporium gramineum)", "assay": "Drechslera graminea test (barley)/seed treatment", "type": "in vivo", "conditions": "application rate 500 mg/kg of seed, approx. 3 weeks after sowing, undressed 23.4", "experimental": "Drechslera graminea test (barley)/seed treatment (syn. Helminthosporium gramineum)\nThe active compounds are applied in the form of dry dressing agents. They are formulated by diluting the particular active compound with ground minerals to give a finely powdered mixture, which ensures uniform distribution on the surface of the seed.\nThe infested seed is dressed by shaking it for 3 minutes with the dressing agent in a closed glass jar.\nEmbedded in sieved, moist standard soil, the seed is exposed to a temperature of 4° C. for 10 days in closed Petri dishes in a refrigerator. This initiates the germination of the barley sand, if appropriate, also that of the fungus spores. The pre-germinated barley is then sown in 2 lots of 50 grains 3 cm deep in standard soil and is cultivated in seed boxes which are exposed to light for 15 hours a day in a greenhouse at a temperature of approx. 18° C.\nThe plants are evaluated for symptoms of stripe disease approx. 3 weeks after sowing."}, "[10]": {"system": "Polyporus versicolor", "assay": "MIC against fungi (agar), Polyporus versicolor", "type": "cell-based", "conditions": "Trametes versicolor, 336 h, beer wort/peptone agar, 2 weeks at 28° C., 60 to 70% relative humidity", "experimental": "as §1"}, "[11]": {"system": "Trichoderma viride", "assay": "MIC against fungi (agar), Trichoderma viride", "type": "cell-based", "conditions": "336 h, beer wort/peptone agar, 2 weeks at 28° C., 60 to 70% relative humidity", "experimental": "as §1"}, "[12]": {"system": "slime organisms", "assay": "Action against slime organisms (MIC)", "type": "cell-based", "conditions": "504 h; slime organisms approx. 10^6 microbes/ml, Allen's nutrient solution with 1% caprolactam, room temperature, 3 weeks", "experimental": "Substances according to the invention are used in concentrations of 0.1 to 100 mg/l in each case, dissolved in a little acetone, in Allen's nutrient solution (Arch. Mikrobiol. 17, 34 to 53 (1952)) containing 0.2 g of ammonium chloride, 4.0 g of sodium nitrate, 1.0 g of dipotassium hydrogenphosphate, 0.2 g of calcium chloride, 2.05 g of magnesium sulphate and 0.02 g of iron chloride, together with 1% of caprolactam, in 4 l of sterile water. Shortly beforehand, the nutrient solution is infested with slime organisms (approx. 10^6 microbes/ml), isolated from the spinning water circulation used in the production of polyamide."}}, "data": [{"smiles": "Fc1cccc2c1cnn2SC(F)(Cl)Cl", "note": "[1-Dichlorofluoromethylsulphenyl-4-fluoroindazole, reference compound]", "values": [{"measurement": "MIC", "setting": "[1]", "value": 200, "unit": "µg/mL"}, {"measurement": "MIC", "setting": "[2]", "value": 500, "unit": "µg/mL"}, {"measurement": "MIC", "setting": "[3]", "value": 200, "unit": "µg/mL"}]}, {"smiles": "FC(F)(F)Oc1ccc2cnn(SC(Cl)(Cl)Cl)c2c1", "note": "[Example 1, 6-Trifluoromethoxy-1-trichloromethylsulphenylindazole]", "values": [{"measurement": "MIC", "setting": "[1]", "value": 20, "unit": "µg/mL"}, {"measurement": "MIC", "setting": "[4]", "value": 150, "unit": "µg/mL"}, {"measurement": "MIC", "setting": "[5]", "value": 350, "unit": "µg/mL"}, {"measurement": "MIC", "setting": "[6]", "value": 20, "unit": "µg/mL"}, {"measurement": "MIC", "setting": "[2]", "value": 20, "unit": "µg/mL"}, {"measurement": "MIC", "setting": "[7]", "value": 75, "unit": "µg/mL"}, {"measurement": "MIC", "setting": "[3]", "value": 75, "unit": "µg/mL"}, {"measurement": "MIC", "setting": "[8]", "value": 75, "unit": "µg/mL"}]}, {"smiles": "FC(F)(F)Oc1ccc2cnn(SC(F)(Cl)Cl)c2c1", "note": "[Example 2, 6-Trifluoromethoxy-1-dichlorofluoromethylsulphenylindazole]", "values": [{"measurement": "MIC", "setting": "[1]", "value": 2, "unit": "µg/mL"}, {"measurement": "MIC", "setting": "[4]", "value": 75, "unit": "µg/mL"}, {"measurement": "MIC", "setting": "[5]", "value": 150, "unit": "µg/mL"}, {"measurement": "MIC", "setting": "[6]", "value": 20, "unit": "µg/mL"}, {"measurement": "MIC", "setting": "[2]", "value": 20, "unit": "µg/mL"}, {"measurement": "MIC", "setting": "[7]", "value": 35, "unit": "µg/mL"}, {"measurement": "Diseased plants as % of all the emerged plants", "setting": "[9]", "value": 4.1, "unit": "%"}, {"measurement": "MIC", "setting": "[3]", "value": 2, "unit": "µg/mL"}, {"measurement": "MIC", "setting": "[8]", "value": 20, "unit": "µg/mL"}]}, {"smiles": "FC1Oc2cc3c(cnn3SC(F)(Cl)Cl)cc2OC1(F)F", "note": "(centres unmarked) [Example 4]", "values": [{"measurement": "MIC", "setting": "[1]", "value": 100, "unit": "µg/mL"}, {"measurement": "MIC", "setting": "[2]", "value": 150, "unit": "µg/mL"}, {"measurement": "MIC", "setting": "[3]", "value": 100, "unit": "µg/mL"}]}, {"smiles": "FC(F)(F)Oc1ccc2c(cnn2SC(F)(Cl)Cl)c1", "note": "[Example 5]", "values": [{"measurement": "MIC", "setting": "[1]", "value": 20, "unit": "µg/mL"}, {"measurement": "MIC", "setting": "[4]", "value": 20, "unit": "µg/mL"}, {"measurement": "MIC", "setting": "[5]", "value": 20, "unit": "µg/mL"}, {"measurement": "MIC", "setting": "[10]", "value": 2, "unit": "µg/mL"}, {"measurement": "MIC", "setting": "[11]", "value": 50, "unit": "µg/mL"}, {"measurement": "MIC", "setting": "[2]", "value": 20, "unit": "µg/mL"}, {"measurement": "MIC", "setting": "[7]", "value": 0.75, "unit": "µg/mL"}, {"measurement": "MIC", "setting": "[3]", "value": 20, "unit": "µg/mL"}, {"measurement": "MIC", "setting": "[12]", "value": "5 to 10", "unit": "µg/mL"}, {"measurement": "MIC", "setting": "[8]", "value": 0.1, "unit": "µg/mL"}]}, {"smiles": "Cc1cc(C(F)(F)F)c2cnn(SC(F)(Cl)Cl)c2c1Cl", "note": "[Example 8]", "values": [{"measurement": "MIC", "setting": "[1]", "value": "< 20", "unit": "µg/mL"}, {"measurement": "MIC", "setting": "[2]", "value": 500, "unit": "µg/mL"}, {"measurement": "MIC", "setting": "[3]", "value": "< 20", "unit": "µg/mL"}]}, {"smiles": "FC(F)(F)Oc1ccc2c(cnn2SC(F)(Cl)Cl)c1Cl", "note": "[Example 12]", "values": [{"measurement": "MIC", "setting": "[1]", "value": 20, "unit": "µg/mL"}, {"measurement": "MIC", "setting": "[4]", "value": 200, "unit": "µg/mL"}, {"measurement": "MIC", "setting": "[5]", "value": 500, "unit": "µg/mL"}, {"measurement": "MIC", "setting": "[6]", "value": 20, "unit": "µg/mL"}, {"measurement": "MIC", "setting": "[2]", "value": 50, "unit": "µg/mL"}, {"measurement": "MIC", "setting": "[7]", "value": 200, "unit": "µg/mL"}, {"measurement": "MIC", "setting": "[3]", "value": 20, "unit": "µg/mL"}, {"measurement": "MIC", "setting": "[8]", "value": 7.5, "unit": "µg/mL"}]}, {"smiles": "Cc1cc2cnn(SC(F)(Cl)Cl)c2c(C)c1C(F)(F)F", "note": "[Example 15]", "values": [{"measurement": "MIC", "setting": "[1]", "value": "< 20", "unit": "µg/mL"}, {"measurement": "MIC", "setting": "[2]", "value": 50, "unit": "µg/mL"}, {"measurement": "MIC", "setting": "[3]", "value": "< 20", "unit": "µg/mL"}]}, {"smiles": "FC(F)(F)Sc1ccc2cnn(SC(F)(Cl)Cl)c2c1", "note": "[Example 16]", "values": [{"measurement": "MIC", "setting": "[1]", "value": "< 20", "unit": "µg/mL"}, {"measurement": "MIC", "setting": "[2]", "value": "< 20", "unit": "µg/mL"}, {"measurement": "MIC", "setting": "[3]", "value": "< 20", "unit": "µg/mL"}]}, {"smiles": "FC(Cl)(Cl)Sn1ncc2c(Cl)c(Cl)c(C(F)(F)F)cc21", "note": "[Example 17]", "values": [{"measurement": "MIC", "setting": "[1]", "value": "< 20", "unit": "µg/mL"}, {"measurement": "MIC", "setting": "[2]", "value": 500, "unit": "µg/mL"}, {"measurement": "MIC", "setting": "[3]", "value": "< 20", "unit": "µg/mL"}]}, {"smiles": "FC(F)(F)Sc1ccc2c(cnn2SC(F)(Cl)Cl)c1", "note": "[Example 18]", "values": [{"measurement": "MIC", "setting": "[1]", "value": "< 20", "unit": "µg/mL"}, {"measurement": "MIC", "setting": "[2]", "value": "< 20", "unit": "µg/mL"}, {"measurement": "MIC", "setting": "[3]", "value": "< 20", "unit": "µg/mL"}]}, {"smiles": "Cc1cc(F)cc2c1cnn2SC(F)(Cl)Cl", "note": "[Example 19]", "values": [{"measurement": "MIC", "setting": "[1]", "value": 20, "unit": "µg/mL"}, {"measurement": "MIC", "setting": "[4]", "value": 15, "unit": "µg/mL"}, {"measurement": "MIC", "setting": "[5]", "value": 50, "unit": "µg/mL"}, {"measurement": "MIC", "setting": "[6]", "value": 5, "unit": "µg/mL"}, {"measurement": "MIC", "setting": "[11]", "value": 500, "unit": "µg/mL"}, {"measurement": "MIC", "setting": "[2]", "value": 10, "unit": "µg/mL"}, {"measurement": "MIC", "setting": "[7]", "value": 15, "unit": "µg/mL"}, {"measurement": "MIC", "setting": "[3]", "value": 10, "unit": "µg/mL"}, {"measurement": "MIC", "setting": "[8]", "value": 0.5, "unit": "µg/mL"}]}]}
